Laboratory results as given in patent publication US5817840A, “Water soluble taxol derivatives” (The Scripps Research Institute, priority 1997, dated 1998).
Where two headings read alike, the source gives them in different places.

Assays:
[1] = system: RPMI-7666 (normal human PBLs); test: Cytotoxicity (sulphorhodamine B), normal cell line, Table 1B; format: cell-based; settings: 72 h
[2] = system: NHDF (normal human skin); test: as above; format: cell-based; settings: 72 h
[3] = system: CHO (normal human mammary); test: as above; format: cell-based; settings: Homo sapiens, 72 h
[4] = system: OVCAR-3 (ovarian carcinoma); test: Cytotoxicity (sulphorhodamine B), cancer cell line, Table 1B; format: cell-based; settings: Homo sapiens, OVCAR-3, 72 h
[5] = system: SIHA (cervix carcinoma); test: as above; format: cell-based; settings: Homo sapiens, SiHa, 72 h
[6] = system: HL-60 (promyel carcinoma); test: as above; format: cell-based; settings: Homo sapiens, HL-60, 72 h
[7] = system: 786-0 (renal cell carcinoma); test: as above; format: cell-based; settings: Homo sapiens, 786-0, 72 h
[8] = system: HT-29 (colon carcinoma); test: as above; format: cell-based; settings: Homo sapiens, HT-29, 72 h
[9] = system: UCLA-P-3 (lung carcinoma); test: as above; format: cell-based; settings: Homo sapiens, UCLA P-3, 72 h
[10] = system: CHO (Chinese hamster ovary); test: Cytotoxicity (sulphorhodamine B), normal cell line, Table 1B; format: cell-based; settings: Cricetulus griseus, 72 h
[11] = system: BALB/c 3T3 (normal mouse embryo); test: as above; format: cell-based; settings: BALB/c3T3, 72 h
[12] = system: PC-3 (prostate carcinoma); test: Cytotoxicity (sulphorhodamine B), cancer cell line, Table 1B; format: cell-based; settings: Homo sapiens, 72 h
[13] = system: BT-549 (breast carcinoma); test: as above; format: cell-based; settings: Homo sapiens, BT-549, 72 h
[14] = system: MCF-7 (breast carcinoma); test: as above; format: cell-based; settings: Homo sapiens, MCF7, 72 h
[15] = system: L1210 (mouse leukaemia); test: as above; format: cell-based; settings: L1210, 72 h
[16] = system: H322 (lung carcinoma); test: as above; format: cell-based; settings: NCI-H322, 72 h
[17] = system: MOLT-4 (T-cell leukaemia); test: as above; format: cell-based; settings: Homo sapiens, MOLT-4, 72 h
[18] = system: Capan-1 (pancreatic); test: as above; format: cell-based; settings: Homo sapiens, CAPAN-1, 72 h
[19] = system: SK (melanoma); test: as above; format: cell-based; settings: 72 h
[20] = system: broad spectrum of cell lines; test: Cytotoxicity against a broad spectrum of cell lines (overall); settings: three-day exposure; compared with taxol
Experimental: The protaxols synthesized in this study were tested against a broad spectrum of cell lines ranging from the multiple-drug resistant ovarian (OVCAR-3) to lung (H-322) and leukemia (MOLT-4) cells in order to assess cytotoxicity, cell-type selectivity, and duration of action.
The cytotoxicities were determined using the sulphorhodamine B assay method (Skehan, P. et al. J. Nat. Canc. Inst. 82, 1107 (1990)).

[21] = system: CAPAN-1 (pancreatic carcinoma); test: Cytotoxicity, Example 8; format: cell-based; settings: Homo sapiens
Experimental: (§1) Tumor or normal cells were cultured in 96-well plates with the test compound in 200 μl of RPMI supplemented with 10% fetal bovine serum (Hyclone, Salt Lake City, Utah) at 37° C. in a humidified atmosphere containing 5% CO2 in air for 72 hours. Sulforhodamine B dissolved in 1% acetic acid was added, and the plates were incubated for 30 minutes at ambient temperature, washed with 1% acetic acid, and blotted. To the air-dried plates were added 100 μl of […] unbuffered TRIS base (pH 10.5) with shaking. The optical densities of the plates were measured with a microplate reader (Molecular Devices Thermomax) at 540 nm. The concentration of compound required to reduce the absorbance to 50% of control samples was recorded as IC50.
(§2) NHDF: Normal human dermal fibroblast (available from Clouelics Corp., San Diego, Calif.); HLF-1: Normal human diploid lung; W1-38; Normal human diploid lung; CHO; Chinese hamster ovary; SK-MEL-28: Melanoma; CAPAN-1: Pancreatic carcinoma; H322: lung carcinoma; MCF-7; Breast carcinoma; BT-549; Human breast ductal carcinoma; OVCAR-3: Human ovarian carcinoma; HT-29: Human adenocarcinoma, colon; SIHA: Human squamous carcinoma crvx; 786-0: Human perirenal cell adenocarci; PC-3: Human prostate adenocarcinoma; HL-60: Human promyelomic leukemia; MOLT-4: Human T-cell leukemia. All cell lines except NHDF are available from the American Tissue Culture Collection, Rockville, Md.

[22] = system: MCF-7 (breast carcinoma); test: Cytotoxicity, Example 8; format: cell-based; settings: Homo sapiens
Experimental: as §1, §2

[23] = system: HT-29 (human adenocarcinoma, colon); test: Cytotoxicity, Example 8; format: cell-based
Experimental: as §1, §2

[24] = system: W1-38 (normal human diploid lung); test: Cytotoxicity, Example 8; format: cell-based
Experimental: as §1, §2

[25] = system: SK-MEL-28 (melanoma); test: Cytotoxicity, Example 8; format: cell-based; settings: Homo sapiens
Experimental: as §1, §2

[26] = system: S1HA (human squamous carcinoma crvx); test: Cytotoxicity, Example 8; format: cell-based
Experimental: as §1, §2

[27] = system: OVCAR-3 (human ovarian carcinoma); test: Cytotoxicity, Example 8; format: cell-based
Experimental: as §1, §2

[28] = system: 786-0 (human perirenal cell adenocarci); test: Cytotoxicity, Example 8; format: cell-based
Experimental: as §1, §2

[29] = system: CHO (Chinese hamster ovary); test: Cytotoxicity, Example 8; format: cell-based; settings: Cricetulus griseus
Experimental: as §1, §2

[30] = system: BT-549 (human breast ductal carcinoma); test: Cytotoxicity, Example 8; format: cell-based
Experimental: as §1, §2

[31] = system: HLF-1 (normal human diploid lung); test: Cytotoxicity, Example 8; format: cell-based
Experimental: as §1, §2

[32] = system: H322 (lung carcinoma); test: Cytotoxicity, Example 8; format: cell-based
Experimental: as §1, §2

[33] = system: NHDF (normal human dermal fibroblast); test: Cytotoxicity, Example 8; format: cell-based
Experimental: as §1, §2

[34] = system: PC-3 (human prostate adenocarcinoma); test: Cytotoxicity, Example 8; format: cell-based
Experimental: as §1, §2

## COC(=O)CS(=O)(=O)CC(=O)O[C@@H](C(=O)O[C@H]1C[C@@]2(O)[C@@H](OC(=O)c3ccccc3)[C@@H]3[C@]4(OC(C)=O)CO[C@@H]4C[C@H](O)[C@@]3(C)C(=O)[C@H](OC(C)=O)C(=C1C)C2(C)C)[C@@H](NC(=O)c1ccccc1)c1ccccc1 [Compound 6]
[1]
  IC50: 100 µM
[2]
  IC50: 1 µM
[3]
  IC50: 100 µM
[4]
  IC50: 1 µM
[5]
  IC50: 100 µM
[6]
  IC50: 0.1 µM
[7]
  IC50: 10 µM
[8]
  IC50: 0.1 µM
[9]
  IC50: < 0.001 µM
[10]
  IC50: 100 µM
[11]
  IC50: 10 µM
[12]
  IC50: 1 µM
[13]
  IC50: 0.001 µM
[14]
  IC50: 10 µM
[15]
  IC50: 10 µM
[16]
  IC50: 0.1 µM
[17]
  IC50: 0.1 µM
[18]
  IC50: 0.1 µM
[19]
  IC50: 10 µM
[20]
  cytotoxicity (in words): lower cytotoxicities

## CC(=O)O[C@H]1C(=O)[C@@]2(C)[C@H]([C@H](OC(=O)c3ccccc3)[C@]3(O)C[C@H](OC(=O)[C@H](OC(=O)OCCS(=O)(=O)c4ccc([N+](=O)[O-])cc4)[C@@H](NC(=O)c4ccccc4)c4ccccc4)C(C)=C1C3(C)C)[C@]1(OC(C)=O)CO[C@@H]1C[C@@H]2O [Compound 9]
[1]
  IC50: 100 µM
[2]
  IC50: 1 µM
[3]
  IC50: 100 µM
[4]
  IC50: 1 µM
[5]
  IC50: 10 µM
[6]
  IC50: 0.1 µM
[7]
  IC50: 1 µM
[8]
  IC50: 0.1 µM
[9]
  IC50: < 0.001 µM
[10]
  IC50: 100 µM
[11]
  IC50: 10 µM
[12]
  IC50: 1 µM
[13]
  IC50: 0.1 µM
[14]
  IC50: 10 µM
[15]
  IC50: 1 µM
[16]
  IC50: 1 µM
[17]
  IC50: 0.001 µM
[18]
  IC50: 1 µM
[19]
  IC50: 10 µM
[20]
  cytotoxicity (in words): lower cytotoxicities

## CC(=O)O[C@H]1C(=O)[C@@]2(C)[C@H]([C@H](OC(=O)c3ccccc3)[C@]3(O)C[C@H](OC(=O)[C@H](OC(=O)CSCC(=O)O)[C@@H](NC(=O)c4ccccc4)c4ccccc4)C(C)=C1C3(C)C)[C@]1(OC(C)=O)CO[C@@H]1C[C@@H]2O [Compound 4, 2'-thiodiglycolic taxol]
[21]; CAPAN-1, 72 h
  IC50: 0.19 µM
[22]; MCF7, 72 h
  IC50: 100 µM
[23]; HT-29, 72 h
  IC50: 0.19 µM
[24]; W138, 72 h
  IC50: 13 µM
[25]; SK-MEL-28, 72 h
  IC50: 100 µM
[26]; 72 h
  IC50: 50 µM
[27]; OVCAR-3, 72 h
  IC50: 0.39 µM
[28]; 786-0, 72 h
  IC50: 6.3 µM
[29]; 72 h
  IC50: 50 µM
[30]; BT-549, 72 h
  IC50: 16 µM
[31]; HLF1, 72 h
  IC50: 3.1 µM
[32]; NCI-H322, 72 h
  IC50: 3.1 µM
[33]; 72 h
  IC50: 50 µM
[34]; 72 h
  IC50: 100 µM

## CC(=O)O[C@H]1C(=O)[C@@]2(C)[C@H]([C@H](OC(=O)c3ccccc3)[C@]3(O)C[C@H](OC(=O)[C@H](OC(=O)COCC(=O)O)[C@@H](NC(=O)c4ccccc4)c4ccccc4)C(C)=C1C3(C)C)[C@]1(OC(C)=O)CO[C@@H]1C[C@@H]2O [Compound 3]
[21]; CAPAN-1, 72 h
  IC50: 0.098 µM
[22]; MCF7, 72 h
  IC50: 357 µM
[23]; HT-29, 72 h
  IC50: 0.01 µM
[24]; W138, 72 h
  IC50: 51.9 µM
[25]; SK-MEL-28, 72 h
  IC50: 100 µM
[26]; 72 h
  IC50: 1120 µM
[27]; OVCAR-3, 72 h
  IC50: 0.098 µM
[28]; 786-0, 72 h
  IC50: 0.153 µM
[29]; 72 h
  IC50: 101 µM
[30]; BT-549, 72 h
  IC50: 51.4 µM
[31]; HLF1, 72 h
  IC50: 59.5 µM
[32]; NCI-H322, 72 h
  IC50: 205 µM
[33]; 72 h
  IC50: 103 µM
[34]; 72 h
  IC50: 65.1 µM

## CC(=O)O[C@H]1C(=O)[C@@]2(C)[C@H]([C@H](OC(=O)c3ccccc3)[C@]3(O)C[C@H](OC(=O)[C@H](OC(=O)C[S+]([O-])CC(=O)O)[C@@H](NC(=O)c4ccccc4)c4ccccc4)C(C)=C1C3(C)C)[C@]1(OC(C)=O)CO[C@@H]1C[C@@H]2O (stereo partly shown) [Example 3a]
[21]; Capan-1, 72 hours, read-out: IC50
  IC50: 0.87 µM
[22]; MCF7, MCF-7, 72 hours, read-out: IC50
  IC50: 39.2 µM
[23]; HT-29, 72 hours, read-out: IC50
  IC50: 0.098 µM
[24]; W138, W1-38, 72 hours, read-out: IC50
  IC50: 25 µM
[25]; SK-MEL-28, 72 hours, read-out: IC50
  IC50: 100 µM
[26]; S1HA, 72 hours, read-out: IC50
  IC50: 25 µM
[27]; OVCAR-3, 72 hours, read-out: IC50
  IC50: 0.098 µM
[28]; 786-0, 72 hours, read-out: IC50
  IC50: 0.15 µM
[29]; CHO, 72 hours, read-out: IC50
  IC50: 100 µM
[30]; BT-549, 72 hours, read-out: IC50
  IC50: 0.098 µM
[31]; HLF1, HLF-1, 72 hours, read-out: IC50
  IC50: 25 µM
[32]; NCI-H322, H322, 72 hours, read-out: IC50
  IC50: 8.3 µM
[33]; 72 hours, read-out: IC50
  IC50: 50 µM
[34]; PC-3, 72 hours, read-out: IC50
  IC50: 50 µM
